From a melting point compilation (Tetko et al.; mined from patent text by program, amines drawn as free bases though some values may be those of a salt) come the findings set out here.

One may read the melting point as the temperature, or range, at which the solid turns liquid. The molecule `CCn1cc(C(=O)O)c(=O)c2cnc(N3CCN(Cc4ccc([N+](=O)[O-])cc4)CC3)nc21` displayed a melting point of 259 to 261 °C.

As for `Cc1cc(-c2cc(C(F)(F)F)n3ncc(-c4nc(-c5ccnc(N)c5)no4)c3n2)ccc1C(F)(F)F`, the melting point is 245 °C.

`Clc1nc2nc(Cl)sc2s1` showed a melting point of 180 °C.

In the case of `O=C(NCCO)c1cccc(-c2cccc3cn(Cc4cccc(C(F)(F)F)c4)nc23)c1`, the melting point is 136 to 137 °C.

`CC(=O)Cc1ccc(Oc2ccc(C(F)(F)F)cc2)cc1` showed a melting point of 88 to 90 °C.

The molecule `Cn1cc([C@H]2CC[C@@H](N3CCN(c4cc(C(=O)O)cc5cccnc45)CC3)CC2)c2cc(C#N)ccc21` displayed a melting point of 230 °C.

For the molecule `OCCc1ncn(C(c2ccccc2)(c2ccccc2)c2ccccc2)n1`, the melting point was 127 to 129 °C.

`O=CN(O)C(CS(=O)(=O)c1ccc(Oc2ccc(OC(F)(F)F)cc2)cc1)CS(=O)(=O)N1CCCC1` (configuration not stated) returned a melting point of 120 to 123 °C.

With `CNC(=O)ON=C1N=C(C)C(C)(C)S1`, the melting point is 123 to 125 °C.

Turning to `CON1C=C2N=NC3=C(N2C1)N(c1ccccc1)CC(C)=C3`, the melting point is 214 to 217 °C.

Take `O=C(CN1C(=O)[C@H](Cl)[C@H]1[S@@](=O)Cc1ccccc1)NCCCCCCc1ccc(F)cc1`: the melting point was 87 to 89 °C.

As for `COc1ccccc(Br)c1=O`, the melting point lay within 74 to 75 °C.

In turn, `Nc1nc2c(cnn2CCc2ccccc2)c2nc(-c3ccco3)nn12` yielded a melting point of 225 to 226 °C.

On to `CCc1cnc(NC(=O)C2c3ccccc3Oc3ccccc32)o1`, for which the melting point was 212 to 213 °C.

Molecule `COc1cc2c(cc1C#N)[C@@H](O)[C@H](Br)C(C)(C)O2` (relative stereo) showed a melting point of 144 to 146 °C.

As for `CCCOc1ccc(-c2scc(-c3ccccc3Cl)c2CC(=O)OC)cc1`, the melting point fell in the range of 81 to 82 °C.

In the case of `Cc1ccc(CC(O)=S)cc1`, the melting point was in the range of 94.5 to 95 °C.

As to `CCCCC(=O)Nc1cccc(C(=O)OC)c1`, the melting point is 101 to 102 °C.

Consider `COc1cc2c(cc1O)CC(C)(C)N=C2`, for which the melting point lay within 152 to 157 °C.

Molecule `Cn1cc(-c2cnccn2)cc(Cl)c1=O` returned a melting point of 197 to 198 °C.

In the case of `COC(=O)C(=C/c1c(OC)cc(OC)cc1OC)/C(=C\c1ccccc1)C(N)=O`, the melting point fell in the range of 169 to 171 °C.

With `O=C(O)Cn1c(=O)[nH]c(=O)c2ccc(Cl)cc21`, the melting point was determined as 306 °C.

Turning to `O=C(O)CCC1OC(=O)C(O)=C1c1ccccc1` (configuration not stated), the melting point was in the range of 177 to 179 °C.

Consider `CCOC(=O)CNc1ncccc1NC(=O)c1ccc(Cl)cc1`, for which the melting point is 133 to 134 °C.

`CC(C)c1ccccc1N1C(=O)CON(C)C1=S`: the melting point fell in the range of 98 to 101 °C.

Molecule `Cn1c(=O)c(-c2ccc(Cl)cc2Cl)cc2c3cc(-c4ccn[nH]4)ccc3n(C)c21` yielded a melting point of 281 to 282 °C.

As to `CC(=O)Nc1ccc2c(c1)C(=O)C(=O)N2CCN(C(C)C)C(C)C`, the melting point lay in the range of 187 to 190 °C.

In turn, `O=CCCc1nc(-c2ccc(Cl)cc2)co1` gave a melting point of 41 to 42 °C.

The molecule `CC1(C)OC(=O)Nc2ccc(-c3ccc(C#N)s3)cc21` returned a melting point of 264 to 266 °C.

Turning to `COc1cnnc(Cl)c1`, the melting point lay within 98 to 100 °C.

Consider `CCCCCNCc1ccc(-c2ccccc2S(=O)(=O)NC(C)(C)C)cc1`, for which the melting point lay in the range of 69 to 70 °C.

The molecule `Cc1ccc(C(=CC=O)c2ccc(C)cc2)cc1` came in with a melting point of 92 to 93.5 °C.

Molecule `COc1ccc(N2CCOCC2)c2sc(C(N)=O)nc12` displayed a melting point of 228 to 230 °C.

In turn, `CC(=O)OC1CSC(Oc2ccc(-c3cncnc3)nc2)C(OC(C)=O)C1OC(C)=O` (configuration not stated) gave a melting point of 215 °C.

Molecule `c1ccc(-c2cn3ccccc3n2)cc1` showed a melting point of 135 to 137 °C.

`COc1ccc(C(=O)Nc2ccc(C3(CNC(=O)c4cscn4)CCCC3)cc2)cc1OC` displayed a melting point of 101 to 104 °C.

In turn, `Cc1nc(NC(=O)c2ccn(-c3ccccc3)c(=O)c2)sc1C(=O)NCc1ccccc1` showed a melting point of 260 to 262 °C.

The molecule `CCOC(=O)c1cnc2c(C)csc2c1Cl` came in with a melting point of 113 to 115 °C.

`CN1CCc2c(c3ccccc3n2CCC#N)C1` returned a melting point of 108 to 110 °C.

With `COC(=O)[C@H](C)N(C(=O)[C@H](CC(C)C)NC(=O)OCc1ccccc1)c1ccc(-c2ccccc2)cc1`, the melting point fell in the range of 126 to 127 °C.

For the molecule `O=C(O)c1ccc(C=C2CCc3cc(OCCn4ccnc4)ccc3C2=O)cc1`, the melting point fell in the range of 267 to 268 °C.

Take `C#CCOc1cccc(-n2c(-c3ccccc3)cc(=O)c(C)c2-c2ccccc2)c1`: the melting point fell in the range of 166 to 169 °C.

In turn, `CC(C)(O)CCCCc1ccc2ccccc2c1O` came in with a melting point of 101 to 102 °C.

Take `C=CCN1CCC23c4c5ccc(O)c4OC2C(C)C(=NO)CC3(O)C1C5` (configuration not stated): the melting point lay within 128 to 129 °C.

Turning to `COC(=O)c1c(N)ccc([N+](=O)[O-])c1C`, the melting point lay in the range of 92 to 94 °C.

Consider `CCCCN1C(=O)CC(=O)NC1=O`, for which the melting point was 107 to 108 °C.

As to `Cc1ncsc1C(C)(O)c1ccccc1` (configuration not stated), the melting point is 128 to 130 °C.

On to `Cn1cc2c3c(ccc2n1)CCC3=O`, for which the melting point was in the range of 162 to 164 °C.

`COC(=O)C(Sc1ccccc1)c1ccc(Oc2ccc(Cl)cc2)cc1` (configuration not stated): the melting point was in the range of 64 to 68.5 °C.

As for `N#CN=C(NCCC(=O)O)Nc1ccc2nonc2c1`, the melting point was 92 °C.

The molecule `CCCCC1Sc2c(cc(OC)c(Cl)c2Cl)C1O` (configuration not stated) had a melting point of 95 to 96 °C.

For `COC(=O)Nc1nc(-c2ccccc2)c(-c2nc3ccccc3c(=O)n2-c2ccccc2C)s1`, the melting point was over 275 °C.

With `CCCCCCCCCCCCCCCCNC(=O)CC#N`, the melting point fell in the range of 95.5 to 96.5 °C.

In turn, `COc1ccc(N2CCN(c3ccc(-n4cnn(C(C)C(F)(F)F)c4=O)cc3)CC2)cc1` (configuration not stated) came in with a melting point of 199 °C.

Molecule `CC(=O)NC(CCc1ccc(C=O)cc1)(COC(C)=O)COC(C)=O` yielded a melting point of 98 to 100 °C.

As to `O=Cc1cn(-c2ccccc2)nc1-c1ccc([N+](=O)[O-])o1`, the melting point lay in the range of 208 to 209 °C.

As for `CCc1coc(Cc2ccc([N+](=O)[O-])cc2)n1`, the melting point was 58 to 59 °C.

In turn, `CC(C)(C)OC(=O)N1[C@@H](C2CC2)[C@H](C(=O)O)OC1(C)C` came in with a melting point of 104 to 108 °C.

`CCCCCS(=O)(=O)NC(=O)/C=C/c1ccc(OCCO[Si](C(C)C)(C(C)C)C(C)C)cc1Oc1ncc(C(F)(F)F)cc1Cl` gave a melting point of 106 to 108 °C.

In turn, `Cc1cc(C)cc(S(=O)(=O)n2c(CCC(=O)O)cc3nc(C(F)(F)F)ccc32)c1` returned a melting point of 185 to 189 °C.

Regarding `COc1ccc(C2(C#N)CCC(=O)CC2)cc1OC1CCCC1`, the melting point fell in the range of 111 to 112 °C.

In the case of `OCCN(Cc1ccc2ccccc2c1)C1(c2nccc3sccc23)CCNCC1`, the melting point lay within 53 to 55 °C.

For the molecule `Cc1cc(CCC(=O)O)no1`, the melting point fell in the range of 82 to 84 °C.

As for `Cc1oc(-c2ccccc2)nc1COc1ccc(/C=C/C=C/C#N)cc1`, the melting point was in the range of 120 to 121 °C.

Consider `O=CNc1ccccc1CNC1CCC(=O)NC1=O` (configuration not stated), for which the melting point is 169 to 174 °C.

As for `Cc1cccc(-c2ccc(=O)[nH]n2)c1`, the melting point lay in the range of 202 to 205 °C.

For `FC(F)(F)Oc1ccc(Nc2cc(N3CCCC3)cc(-c3ccccc3)n2)cc1`, the melting point lay in the range of 141 to 143 °C.

In turn, `CC(C)CC1(C(CCN2C(=O)c3c(F)c(F)c(F)c(F)c3C2=O)C(=O)NO)CCN(CCc2ccccc2)C1=O` (configuration not stated) yielded a melting point of 172 to 174 °C.

`O=C1CCCN1C(=O)Oc1ccc(Br)cc1`: the melting point was in the range of 107 to 108 °C.

Turning to `CS(=O)(=O)Nc1cccc(Nc2nc(N3CCC(O)C3)c3nc[nH]c3n2)c1` (configuration not stated), the melting point was 243 to 248 °C.

`COc1ccc(C(=O)NCc2ccc(Br)cc2F)c(OCC(=O)O)c1`: the melting point is 203 to 204 °C.

On to `C=CC(=O)NCc1ccc(CCCl)cc1`, for which the melting point is 145 to 147 °C.

For `CCN(c1ccc(Cl)cc1[N+](=O)[O-])S(=O)(=O)c1ccc(C#N)cc1`, the melting point lay within 146 to 148 °C.

In turn, `O=NN(CCCl)C(=O)NC1(C(=O)Nc2nncs2)CCCC1` yielded a melting point of 160 °C.

Take `CC(C)OC(=O)N1CCC(c2nc3cc(-c4ccc(C(=O)NCCO)c(F)c4)ccc3o2)CC1`: the melting point lay in the range of 145 to 147 °C.

`CN1C(=O)C(c2ccc(OC(F)F)cc2)(C23CC4CC(CC(C4)C2)C3)N=C1N` (configuration not stated) yielded a melting point of 216 to 218 °C.

In turn, `COc1cccc2c(=O)c(C=O)coc12` registered a melting point of 174 to 176 °C.

With `COCCNC(=O)c1cccc(-c2nc(=O)c3ccccc3s2)n1`, the melting point was 176 to 177 °C.

For the molecule `COc1ccc(/C=C(\C#N)c2ccc([N+](=O)[O-])cc2)cc1OC1CCCC1`, the melting point was in the range of 186 to 187 °C.

Consider `COC(=O)C1=C(CF)NC(C)=C(C(=O)OC2CCCC2)C1c1cccc([N+](=O)[O-])c1C` (configuration not stated), for which the melting point lay within 167 to 168 °C.

Regarding `Cc1ccc(S(=O)(=O)N(c2ccc(C#N)cc2C#N)C(C)C)cc1`, the melting point lay in the range of 157 to 158 °C.

For the molecule `FC(F)Oc1ccc(C=Cc2nc(CNc3ccc(CCCCn4ccnn4)cc3)co2)cc1`, the melting point lay within 101 to 102 °C.

Molecule `Cc1[nH]c(-c2ccccc2)c(N)c1C(=O)c1ccccc1` displayed a melting point of 203 to 205 °C.

Turning to `CC1CCCC(C)N1C(=O)CSC#N` (configuration not stated), the melting point fell in the range of 81 to 82 °C.

Molecule `Cn1nc(-c2cccs2)c(N)c1N` yielded a melting point of 154 to 155 °C.

With `CNc1nc(-c2ccccc2)c(-c2nc3ccccc3c(=O)n2-c2ccc(Cl)cc2)s1`, the melting point was over 275 °C.

On to `COc1ccnc(CCc2nc3cc(-c4ccc5[nH]ccc5c4)cnc3[nH]2)c1`, for which the melting point fell in the range of 241 to 242 °C.

`CS(=O)c1ccc(-c2coc3ccc(-c4nnc(S)o4)cc23)cc1` (configuration not stated) had a melting point of 234 to 235 °C.

For the molecule `COc1cc2c(cc1Br)-c1c(Br)c3c(n1CC2)C(=O)N(C(C)(C)C)CCC3`, the melting point lay in the range of 218 to 220 °C.

For `Cc1nc2ccccn2c(=O)c1CCN1CCC(C(=O)c2ccccc2)CC1`, the melting point was determined as 122 °C.

On to `COc1ccc(NC(=O)c2ccc(-c3ccc(-c4noc(CO)n4)cc3C)cc2)cc1N1CCN(C)CC1`, for which the melting point lay in the range of 175 to 178 °C.

As to `Oc1ccc2c(c1O)OCC(c1ccc(F)cc1)C2` (configuration not stated), the melting point was in the range of 166 to 168 °C.
